Assay [1] concerns cathepsins L and B in HEK293T cells. The assay is described as follows: Cathepsin labeling by Cy5 probes in HEK293T cells, immunoblotting. The following applies: 1 μM probe, 0–18 hours. The class given is cell-based, human. The procedure: Figure S3 Cathepsins labeling by two Cy5-tagged probes in HEK293T cells. Panel A. Cells (100,000/well/mL) were incubated with MP-cL3 (1µM) probe for 0-18 hours. Next, cells were harvested and subjected for Western blotting. MP-cL3 probe is very selective toward cathepsin L even after 18 hours of incubation (only residual cathepsin B activity is detected).
MDA-MB-231, thus mostly heavy chain of cathepsin L is labeled. Panel B and Panel C. Cells (100,000/well/mL) were incubated with pan-specific MP-pc1 (1µ M) probe for 0-18 hours. Next, cells were harvested and subjected […]
(1 picture or pasted object on this page, not shown here)

Assay [2] has as its system cathepsin L in MDA-MB-231 cells. Briefly: Weighted colocalization of probe with cathepsin L antibody, confocal microscopy. The following applies: 1 μM probe. The class given is cell-based, human. The procedure:
Glass coverslips 15 mm in diameter were placed in 12-well plates and coated with poly-D-lysine (500 μL, 1 mg mL^–1 in water, Specialty Media) for 30 minutes. The poly-D-lysine was aspirated and the coverslips were washed twice with sterile water and air-dried. Next, low passage MDA-MB-231 cells in DMEM (100 000 cells per mL) were added to wells (1 mL per well) and allowed to attach for 2 hours. Cells were then treated with Cy5-labeled probes (1 μM) for 8 or 24 hours. The control cells were preincubated with E64d for 2 hours. After various incubation times, the medium was removed and the cells were gently washed twice with DPBS (1 mL each). The cells were then fixed with ice-cold methanol (500 μL per well) for 15 minutes at –20 °C. The methanol was gently removed and the fixed cells were washed twice with DPBS, blocked and permeabilized with 10% BSA in DPBS (with 0.5% Triton-X, v/v) for 1 hour at room temperature, and washed twice with 3% BSA in DPBS (with 0.5% Triton-X, v/v). Cathepsins L and B were detected by primary goat anti-hCathepsin L (R&D, AF952, 0.2 mg mL^–1, 1 : 200) and goat anti-hCathepsin B (R&D, AF953, 0.2 mg mL^–1, 1 : 80), respectively, in 3% BSA in DPBS (with 0.5% Triton-X, v/v) for 2 hours at room temperature. The antibodies were removed and the cells were washed twice with 3% BSA in DPBS (with 0.5% Triton-X, v/v) and labeled with a secondary antibody (Alexa Fluor™ 488 donkey anti-goat IgG (H + L), A11055, Invitrogen, 1 : 500) in DPBS (with 0.5% Triton-X, v/v) for 1 hour at room temperature. Next, the cells were washed twice with DPBS, and coverslips were mounted using Vectashield mounting medium fluorescence containing DAPI (Vector Lab. H-1000). In brief, a drop of mounting medium was placed on the Superfrost Plus microscope slide (Fisher Scientific, no. 12-550-15) and the coverslip was placed on the drop upside-down. […] DAPI was detected using the UV channel, the Cy5 probe was detected with a Cy5 filter (excitation at 647 nm (Axio Observer) or 633 nm (Zeiss LSM), emission at 667 nm; red channel) and cathepsins/secondary antibodies were read using FITC filters (excitation at 495 nm (Axio Observer) or 488 nm (Zeiss LSM), emission at 517 nm; […]; green channel). All images were acquired in .tiff format in MetaMorph software or in .lsm format in ZEN software and analyzed using ImageJ and ZEN software. […]
To quantify ABP/cathepsin colocalization we calculated weighted colocalization coefficients between the MP-cL3 ABP (red) and cathepsin L (green) and between the MP-cL3 ABP (red) and cathepsin B (green) using ZEN 2011 software. […]

The target in the next assay is T1, cathepsin V (Homo sapiens, UniProt O60911).
T1 construct: made in house
T1 sequence (O60911 114-334): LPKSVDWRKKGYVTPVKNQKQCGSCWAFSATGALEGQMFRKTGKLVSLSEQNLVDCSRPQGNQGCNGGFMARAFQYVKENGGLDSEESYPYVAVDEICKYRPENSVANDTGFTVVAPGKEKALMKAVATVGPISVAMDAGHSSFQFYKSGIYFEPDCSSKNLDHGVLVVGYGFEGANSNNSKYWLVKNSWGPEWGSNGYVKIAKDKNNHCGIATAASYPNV
Briefly: kobs/I of activity-based probes, cathepsin V. The assay is classed as biochemical. The following applies: Fig. 6A; pseudo-first order, probe at least 5-fold excess over cathepsin, 100 μM ACC substrate; pH 5.5, 37 °C; triplicate, SD below 20%. The procedure: (§1) All kinetic experiments were performed using fMax (Molecular Devices) and CLARIOStar (BMG LABTECH) spectrofluorimeters operating in kinetic mode using 96-well plates. ACC-labeled substrates were screened using 355 nm and 460 nm wavelengths (excitation and emission, respectively). […] The buffer was prepared at room temperature and the enzyme kinetic studies were performed at 37 °C.
(§2) For the kinetic studies, five recombinant human cathepsins (B, L, V, K and S) were expressed and purified and active site titrated using an E64 inhibitor. The kobs/I parameter was measured under pseudo-first order kinetic conditions, as described.[40] The cathepsin of interest was mixed with various concentrations of probe (at least 5-fold excess over cathepsin) and 100 μM ACC-fluorescence substrate. The experiments were repeated at least three times, and the results are presented as an average. The SDs were below 20%.

The target in a further assay is T2, cathepsin B (Homo sapiens, UniProt P07858).
T2 construct: made in house
The assay is described as follows: kobs/I of activity-based probes, cathepsin B. The class given is biochemical. The following applies: Fig. 6A; pseudo-first order, probe at least 5-fold excess over cathepsin, 100 μM ACC substrate; pH 5.5, 37 °C; triplicate, SD below 20%. The procedure:
as §1, §2

Turning to “Cy5-6-ahx-His-DThr-Phe(F5)-Cys(Bzl)-AOMK [MP-cL3]”, the “cathepsins labeled in HEK293T cells” value in assay [1] was “bound only cathepsin L”. In addition, the weighted colocalization coefficient in assay [2] (CatL ab (8h), single cells analysis, 98 single cells) stood at 0.928; in assay [2] (CatL ab (8h), whole pictures analysis, 8 images) it was 0.937; in assay [2] (CatL ab (24h), single cells analysis, 59 single cells), 0.695; in assay [2] (CatL ab (24h), whole pictures analysis, 8 images), 0.725. In addition, the “kobs/I Cath-V” value at cathepsin V came out at 380 M⁻¹ s⁻¹. In addition, at cathepsin B, the “kobs/I Cath-B” value was 780 M⁻¹ s⁻¹.
